Data taken from patent US20250120967A1, “TYROSINE KINASES INHIBITORS AND USES THEREOF” (GREAT NOVEL THERAPEUTICS BIOTECH & MEDICALS CORPORATION, priority 2023, published 2025).
Values joined by “and” are separate entries in the source; they are usually repeats but may differ in a detail not shown here. Equal values may be shown once.

Experiments:
CT26 tumor = test: Experimental tumor model and therapies, CT26 tumor-bearing mice;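 note: male Balb/c mice bearing CT26 grafts in the back, treated once tumors reached roughly 250–300 mm^3, tumor volume measured twice weekly, response graded by fold growth after treatment end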
Protocol: LLC1 was grown at 37° C. under humidified air supplemented with CO2 in DMEM (#10-013-CM, Corning®) containing 10% heat inactivated fetal calf serum, and 1× concentration of MycoZap Antibiotics. CT26 was grown at 37° C. under humidified air supplemented with CO2 in RPMI1640 (cat. #10-040-CM, Corning®) containing 10% heat inactivated fetal calf serum, and 1× concentration of MycoZap Antibiotics. After the cancer cell culture was completed, it was implanted (1×10^6 cells/mouse) into the back of the mouse for growth.
Six- to eight-week-old male Balb/c mice (National Laboratory Animal Center, Taiwan) were used for all animal experiments. […] Tumors were allowed to grow for 10-12 days (tumor size about 250-300 mm^3) before randomization and treatment. The tumor volume of the mice was measured once every three or four days (twice/week). Animals were euthanized when tumors reached more than 3000 mm^3 in diameter. […] Relapse/recurrence was defined as when tumor growth reappeared and tumor size reached at least 5 fold in mice with CR or PR response after secondary tumor assessment. In this study, we defined Complete Response (CR, <0.5 time tumor growth in the tumor bearing mice at tumor assessment after the end of treatment); Partial Response (PR, tumor size ≥0.5 time tumor growth, but <1 time tumor growth in the tumor bearing mice at tumor assessment after the end of treatment); Stable Disease (SD, ≥1 time tumor growth, but <5 times tumor growth in the tumor bearing mice at tumor assessment after the end of treatment); and Progressive Disease (PD, ≥5 times tumor growth in the tumor bearing mice at tumor assessment after the end of treatment) for the evaluation of treatment efficacy.

RPMI-8226 = test: NCI-60 screen (SRB); assay type: cell-based; conditions: Homo sapiens; RPMI-8226, Leukemia
Protocol: (§1) The human tumor cell lines of the cancer screening panel are grown in RPMI 1640 medium containing 5% fetal bovine serum and 2 mM L-glutamine. For a typical screening experiment, cells are inoculated into 96 well microtiter plates in 100 μL at plating densities ranging from 5,000 to 40,000 cells/well depending on the doubling time of individual cell lines. After cell inoculation, the microtiter plates are incubated at 37° C., 5% CO2, 95% air and 100% relative humidity for 24 h prior to addition of experimental drugs. After 24 h, two plates of each cell line are fixed in situ with TCA, to represent a measurement of the cell population for each cell line at the time of drug addition (Tz). Experimental drugs are solubilized in dimethyl sulfoxide at 400-fold the desired final maximum test concentration and stored frozen prior to use. At the time of drug addition, an aliquot of frozen concentrate is thawed and diluted to twice the desired final maximum test concentration with complete medium containing 50 µg/ml gentamicin. An additional four, 10-fold or M log serial dilutions are made to provide a total of five drug concentrations plus control. Aliquots of 100 μl of these different drug dilutions are added to the appropriate microtiter wells already containing 100 μl of medium, resulting in the required final drug concentrations. Following drug addition, the plates are incubated for an additional 48 h at 37° C., 5% CO2, 95% air, and 100% relative humidity. For adherent cells, the assay is terminated by the addition of cold TCA. Cells are fixed in situ by the gentle addition of 50 μl of cold 50% (w/v) TCA (final concentration, 10% TCA) and incubated for 60 minutes at 4° C. The supernatant is discarded, and the plates are washed five times with tap water and air dried. Sulforhodamine B (SRB) solution (100 l) at 0.4% (w/v) in 1% acetic acid is added to each well, and plates are incubated for 10 minutes at room temperature. After staining, unbound dye is removed by washing five times with 1% acetic acid and the plates are air dried. Bound stain is subsequently solubilized with 10 mM trizma base, and the absorbance is read on an automated plate reader at a wavelength of 515 nm. For suspension cells, the methodology is the same except that the assay is terminated by fixing settled cells at the bottom of the wells by gently adding 50 μl of 80% TCA (final concentration, 16% TCA).

KIT = KIT (Homo sapiens, UniProt P10721); test: Tyrosine kinase inhibition assay; assay type: biochemical; conditions: single concentration 1.0 μM, read-out: percent inhibition
Protocol: Tyrosine kinase inhibition assays were performed at ThermoFisher Life Technologies (Madison, WI, USA) using standard protocols (SelectScreen Biochemical Profiling Service, Thermo Fisher Scientific). ATP concentrations used were at the apparent Km. Test compounds were screened in 1% dimethylsulffoxide (DMSO) (final concentration) in the well. For 10-point titrations, 3-fold serial dilutions were conducted from the starting concentration of […]. All Peptide/Kinase Mixtures were diluted to a 2× working concentration in the appropriate Kinase Buffer. All ATP Solutions were diluted to a 4× working concentration in Kinase Buffer (50 mM HEPES pH 7.5, 0.01% BRIJ-35, 10 mM MgCl2, 1 mM EGTA). The apparent ATP Km was previously determined using a Z′-LYTE assay. The Development Reagent was diluted in Development Buffer.
The inhibition activities of compounds were determined in biochemical assays using single concentration (1.0 μM) measurements. The results were provided as percent inhibition values. […]

SNB-75 = test: NCI-60 screen (SRB); assay type: cell-based; conditions: Homo sapiens; SNB-75, CNS Cancer
Protocol: as §1

CT26 cells = test: Tumor rechallenge test, CT26 rechallenge; assay type: in vivo, Balb/c mice; conditions: Table 9, CT26 rechallenge, GNTbm-38-K30 20 mg/kg, Regorafenib 30 mg/kg, Cbo-23 30 mg/kg
Protocol: (§2) Mice evaluated as CR/PR can enter the rechallenge study. All mice with PR/CR response went through rechallenges with CT26 cells on the contralateral side. The first rechallenge was performed after second assessment with a tumor dose of 1×10^6 cells per mouse. After 7 days of growth, CT26 and LLC1 tumor sizes were used as the baseline. Tumor growth was monitored for a duration of 11 days, and on the 11th day, a tumor size assessment was conducted relative to the baseline. If both of the following criteria are met, the response will be considered as relapse: first, the tumor size was over 1.5 folds when compared to that of baseline; second, the tumor volume was over 150 mm^3.
(§3) If both of the following criteria are met, the response will be considered as relapse: first, the tumor size over 1.5 folds when compared to that of baseline; second, the tumor volume at day 67 was over 150 mm^3.
(§4) If both of the following criteria are met, the response will be considered as relapse: first, the tumor size was over 1.5 folds when compared to that of baseline; second, the tumor volume at day 56 was over 150 mm^3.

LLC1 = test: Tumor rechallenge test, LLC1 rechallenge; assay type: in vivo; conditions: Table 9, LLC1 rechallenge, GNTbm-38-K30 20 mg/kg, Regorafenib 30 mg/kg, Cbo-23 30 mg/kg
Protocol: as §2, §3, §4

[1] = FIG. 2E, oral once daily, Cabozantinib 30 mg/kg, Cbo-02 30 mg/kg, Chidamide-K30 50 mg/kg
[2] = FIG. 3E, oral 12 days, Cabozantinib 30 mg/kg, Cbo-20 30 mg/kg, GNTbm-38-K30 40 mg/kg
[3] = FIG. 6E, Cbo-23 30 mg/kg, Cabozantinib 30 mg/kg, GNTbm-38-K30 20 mg/kg
[4] = FIG. 6F, Cbo-23 30 mg/kg, Cabozantinib 30 mg/kg, GNTbm-38-K30 20 mg/kg
[5] = FIG. 5E, Cbo-23 30 mg/kg, Regorafenib 30 mg/kg, GNTbm-38-K30 20 mg/kg in combination, 5 mg/kg alone

Sequence of KIT (P10721 26-976): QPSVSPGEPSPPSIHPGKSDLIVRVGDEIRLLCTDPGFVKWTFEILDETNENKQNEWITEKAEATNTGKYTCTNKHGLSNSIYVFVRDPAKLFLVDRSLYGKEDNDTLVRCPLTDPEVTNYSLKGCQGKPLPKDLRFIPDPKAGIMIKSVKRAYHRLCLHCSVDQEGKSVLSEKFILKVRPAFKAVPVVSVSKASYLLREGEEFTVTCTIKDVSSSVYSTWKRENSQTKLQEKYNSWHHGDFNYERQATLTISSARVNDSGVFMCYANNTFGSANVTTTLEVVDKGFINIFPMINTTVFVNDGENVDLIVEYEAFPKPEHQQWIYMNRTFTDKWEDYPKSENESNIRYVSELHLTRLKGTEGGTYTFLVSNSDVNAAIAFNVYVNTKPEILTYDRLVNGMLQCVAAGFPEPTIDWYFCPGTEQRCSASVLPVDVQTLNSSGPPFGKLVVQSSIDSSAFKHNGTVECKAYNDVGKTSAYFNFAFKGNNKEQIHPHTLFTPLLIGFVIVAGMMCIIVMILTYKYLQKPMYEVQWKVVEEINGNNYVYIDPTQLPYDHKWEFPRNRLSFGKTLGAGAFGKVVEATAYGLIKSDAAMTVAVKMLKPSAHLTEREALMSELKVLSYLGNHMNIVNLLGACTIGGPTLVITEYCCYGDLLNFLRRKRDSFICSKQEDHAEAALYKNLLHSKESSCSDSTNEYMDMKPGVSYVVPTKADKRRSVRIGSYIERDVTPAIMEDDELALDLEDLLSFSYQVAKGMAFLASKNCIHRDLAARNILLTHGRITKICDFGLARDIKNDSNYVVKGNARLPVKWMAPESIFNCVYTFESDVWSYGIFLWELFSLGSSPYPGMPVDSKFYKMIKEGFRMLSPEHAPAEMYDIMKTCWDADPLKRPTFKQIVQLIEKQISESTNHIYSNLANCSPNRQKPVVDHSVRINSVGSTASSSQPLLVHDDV

With `COc1cc2nccc(Oc3ccc(NC(=O)C4(C(=O)Nc5ccc(F)cc5)CC4)cc3)c2cc1OC` [Cabozantinib, reference compound] the ORR (CT26 tumor; [1]) was 0%, the “CR (number of mice)” value (CT26 tumor; [2]) was 0 and the ORR (CT26 tumor; [2]) was 0%. The “PD (number of mice)” value (CT26 tumor; [2]) was 5, the “PR (number of mice)” value (CT26 tumor; [2]) was 0 and the “Survival Rate” value (CT26 tumor; FIG. 3F, Cabozantinib 30 mg/kg, Cbo-20 30 mg/kg, GNTbm-38-K30 40 mg/kg) was 0%. The ORR (CT26 tumor; FIG. 4D, Cabozantinib 30 mg/kg, Cbo-22 30 mg/kg, GNTbm-38-K30 40 mg/kg) was 0%, the “Survival Rate” value (CT26 tumor; FIG. 4E, Cabozantinib 30 mg/kg, Cbo-22 30 mg/kg, GNTbm-38-K30 40 mg/kg) was 0% and the “CR (number of mice)” value (CT26 tumor; [3]) was 3. The ORR (CT26 tumor; [3]) was 44%, the “PD (number of mice)” value (CT26 tumor; [3]) was 2 and the “PR (number of mice)” value (CT26 tumor; [3]) was 1. For the same compound, the “Survival Rate” value (CT26 tumor; [4]) was 33%.

`COc1cc2nccc(Oc3ccc(NC(=O)C4(NC(=O)c5ccc(F)cc5)CC4)cc3F)c2cc1OC` [Cbo-02, N-(1-((4-((6,7-diMethoxyquinolin-4-yl)oxy)-3-fluorophenyl)carbamoyl)cyclopropyl)-4-fluorobenzamide] was tested, and the GI50 (RPMI-8226) was 4.57 µM, the inhibition at 1 µM (KIT) was 33% and the ORR (CT26 tumor; [1]) was 10%.

With `COc1cc2nccc(Oc3ccc(NC(=O)C4(NC(=O)c5ccc(F)cc5)CC4)cc3F)c2cc1Oc1ccc(N)cc1F` [Cbo-10] the GI50 (RPMI-8226) was 2.99 µM, the GI50 (SNB-75) was > 100 µM and the inhibition at 1 µM (KIT) was 48%.

With `COc1cc2nccc(Oc3ccc(NC(=O)C4(NC(=O)c5ccc(F)cc5)CC4)cc3F)c2cc1Oc1c(F)cc(N)cc1F` [Cbo-14] the inhibition at 1 µM (KIT) was 45%.

In the case of `COc1cc2nccc(Oc3ccc(NC(=O)C4(C(=O)Nc5ccc(F)cc5)CC4)cc3F)c2cc1Oc1ccc(N)cc1F` [Cbo-23], the GI50 (SNB-75) is reported as 0.178 µM, the inhibition at 1 µM (KIT) is reported as 51% and the “Day 56 Fold change” value (CT26 cells; individual mice, vs Day 45) is reported as 2.6 and 0. For the same compound, the “Day 45 mm^3 (baseline tumor size)” value (CT26 cells; individual mice) was 119.17 mm^3 and 60.82 mm^3, the “Day 56 mm^3” value (CT26 cells; individual mice) was 309.20 mm^3 and 0 mm^3 and the Score (CT26 cells; individual mice) was “+ (If both of the following criteria are met, the response will be considered as relapse: first, the tumor size was over 1.5 folds when compared to that of baseline; second, the tumor volume at day 56 was over 150 mm^3.)”. For the same compound, the “Immunity Percentage” value (CT26 cells) was 50% (1/2), the “Day 56 Fold change” value (LLC1; individual mice, vs Day 45) was 2.5 and 1.0 and the “Day 45 mm^3 (baseline tumor size)” value (LLC1; individual mice) was 163.76 mm^3 and 173.53 mm^3. The “Day 56 mm^3” value (LLC1; individual mice) was 403.54 mm^3 and 169.80 mm^3, the Score (LLC1; individual mice) was “+ (If both of the following criteria are met, the response will be considered as relapse: first, the tumor size was over 1.5 folds when compared to that of baseline; second, the tumor volume at day 56 was over 150 mm^3.)” and the “Immunity Percentage” value (LLC1) was 50% (1/2). The “CR (number of mice)” value (CT26 tumor; [5]) was 2, the ORR (CT26 tumor; [5]) was 22% and the “PD (number of mice)” value (CT26 tumor; [5]) was 7. For the same compound, the “PR (number of mice)” value (CT26 tumor; [5]) was 0, the “Survival Rate” value (CT26 tumor; FIG. 5F, Cbo-23 30 mg/kg, Regorafenib 30 mg/kg, GNTbm-38-K30 20 mg/kg in combination, 5 mg/kg alone) was 11% and the recurrence rate (CT26 tumor; FIG. 5G, day 60, Cbo-23 30 mg/kg, Regorafenib 30 mg/kg, GNTbm-38-K30 20 mg/kg in combination, 5 mg/kg alone) was 50%. The “CR (number of mice)” value (CT26 tumor; [3]) was 3, the ORR (CT26 tumor; [3]) was 30% and the “PD (number of mice)” value (CT26 tumor; [3]) was 7. For the same compound, the “PR (number of mice)” value (CT26 tumor; [3]) was 0 and the “Survival Rate” value (CT26 tumor; [4]) was 20%.
